# Measurements published in patent publication US10080812B2, “Radioactive iodine labeled pyrido[1,2-a]benzoimidazole derivative compound” (priority 2015, dated 2018).
# Where “and” joins values, the source holds several entries; their conditions need not be identical. Equal values may be shown once.
# What was measured:
# tau = assay: In vitro autoradiography using autopsied brain tissue sections of an Alzheimer's disease patient (temporal lobe); assay type: binding, human; details: for autoradiography images compared with [125I]BIP-1 and [125I]BIP-2: temporal and frontal lobe sections; for radioactivity accumulation in the brain gray matter of the temporal lobe / binding affinity for tau: AD brain section, 370 kBq/mL, 2 h room temperature; for nonspecific binding to the brain white matter: AD brain sections
# Method: (§1) Autopsied brain tissue sections of an Alzheimer's disease (AD) patient (sections from a frontal lobe site and a temporal lobe site, 6 μm) were used, which were provided from Graduate School of Medicine, Kyoto University. Deparaffinization treatment was performed by washing with xylene (15 min×2), ethanol (1 min×2), a 90 vol % aqueous ethanol solution (1 min×1), an 80 vol % aqueous ethanol solution (1 min×1), a 70 vol % aqueous ethanol solution (1 min×1), and purified water (2.5 min×2). A 10 vol % or 50 vol % aqueous ethanol solution of each of [^125I]BIP-1 to -4 (370 kBq/mL) obtained by the method shown in Example 9 was added thereto, and the tissue sections were incubated at room temperature for 2 hours. The tissue sections were washed with a 50 vol % aqueous ethanol solution (2 hr×1), then exposed to an imaging plate (BAS-SR2025 manufactured by Fujifilm Corp.) for 12 hours, and analyzed using a bioimaging analyzer (bioimaging analyzer BAS-5000 manufactured by Fujifilm Corp.). Multi Gauge manufactured by Fujifilm Corp. was used in quantitative analysis.
# Senile plaque (SP) and neurofibrillary tangle (NFT) were stained using sections near the brain sections used in autoradiography. An anti-Aβ1-42 monoclonal antibody (BC05, manufactured by Wako Pure Chemical Industries, Ltd.) was used as a primary antibody in the immunostaining of SP, and an anti-phosphorylated tau monoclonal antibody (AT8, manufactured by Thermo Fisher Scientific Inc.) was used as an antibody in the immunostaining of NFT. Deparaffinization treatment was performed by washing with xylene (15 min×2), ethanol (1 min×2), a 90 vol % aqueous ethanol solution (1 min×1), an 80 vol % aqueous ethanol solution (1 min×1), a 70 vol % aqueous ethanol solution (1 min×1), and purified water (2.5 min×2). The antigens were retrieved by autoclaving (15 min) in a 0.01 mol/L citrate buffer solution (pH 6.0) and formic acid treatment (5 min). The tissue sections were washed with running water (5 min) and then washed with PBS-Tween 20 (2 min×1). The tissue sections were reacted with primary antibody solutions at room temperature for 1 hour and then washed with PBS-Tween 20 (5 min×3). The tissue sections were reacted with Histofine Simple Stain MAX-PO (MULTI) (manufactured by Nichirei Biosciences Inc.) at room temperature for 30 minutes and then washed with PBS-Tween 20 (3 min×3) and TBS (5 min×1). Finally, the tissue sections were reacted with a DAB solution at room temperature for 1 minute. The tissue sections were washed with distilled water (1 min×1) to terminate the reaction. The brain tissue sections were mounted on slides and then observed under a microscope (BZ-9000 manufactured by Keyence Corporation).
# amyloid β protein (Aβ) = molecular target: T1, amyloid β protein (Aβ) (Homo sapiens, UniProt P05067); assay: In vitro autoradiography using autopsied brain tissue sections of an Alzheimer's disease patient (frontal lobe); assay type: binding; details: for radioactivity accumulation in the frontal lobe section / binding affinity for the amyloid β protein (Aβ): AD brain section, 370 kBq/mL, 2 h room temperature
# T1 construct: from tissue; host or cells: autopsied AD patient brain, frontal lobe, 6 µm paraffin sections (Graduate School of Medicine, Kyoto University)
# T1 sequence (P05067 672-713 limits assumed): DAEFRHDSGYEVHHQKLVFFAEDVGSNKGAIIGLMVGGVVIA
# Method: as §1
# Senile plaque (SP) and neurofibrillary tangle (NFT) were stained using sections near the brain sections used in autoradiography. An anti-Aβ1-42 monoclonal antibody (BC05, manufactured by Wako Pure Chemical Industries, Ltd.) was used as a primary antibody in the immunostaining of SP, and an anti-phosphorylated tau monoclonal antibody (AT8, manufactured by Thermo Fisher Scientific Inc.) was used as an antibody in the immunostaining of NFT. Deparaffinization treatment was performed by washing with xylene (15 min×2), ethanol (1 min×2), a 90 vol % aqueous ethanol solution (1 min×1), an 80 vol % aqueous ethanol solution (1 min×1), a 70 vol % aqueous ethanol solution (1 min×1), and purified water (2.5 min×2). The antigens were retrieved by autoclaving (15 min) in a 0.01 mol/L citrate buffer solution (pH 6.0) and formic acid treatment (5 min). The tissue sections were washed with running water (5 min) and then washed with PBS-Tween 20 (2 min×1). […]
# [1] = Comparison of intracerebral kinetics in mice; assay type: in vivo, ddY male mice; details: for radioactivity in the brain: i.v. tail vein; for Brain2 min/60 min: ratio of radioactivity in the brain between 2 and 60 min after administration
# Method: (§2) Each of [^125I]BIP-1 to -4 obtained by the method shown in Example 9 was diluted with saline containing 10 vol % ethanol and 0.1 vol % Tween 80. Each of [^125I]BIP-1 to -4 was administered to a group of 5-week-old ddY male mice (26 to 28 g; each group involved 5 mice) from the tail veins thereof at 25.0 to 37.5 kBq (100 μL) per mouse. After 2, 10, 30, or 60 minutes, the mice were slaughtered. After blood collection, the brains were taken out, and their weights and radioactivity were measured. As for [^125I]BIP-3, the principal organs were also excised, and their weights and radioactivity were measured.
# [2] = In vivo radioactivity distribution experiment; set-up: species or system ddY male mice; details: mouse; for radioactivity in Blood / radioactivity in Brain / radioactivity in Heart / radioactivity in Intestine / radioactivity in Kidneys / radioactivity in Liver / radioactivity in Lungs / radioactivity in Pancreas / radioactivity in Spleen / radioactivity in Stomach / radioactivity in Thyroid gland: i.v.
# Method: as §2
# [3] = Stability evaluation in plasma; assay type: in vitro ADME, ddY mouse; details: 37° C., 1 hour
# Method: Blood was collected from the heart of a ddY mouse (5 weeks old, body weight: 25 to 28 g) under anesthesia with isoflurane. The collected blood was fractionated by centrifugation at 4000×g for 10 minutes to recover a supernatant. [^125I]BIP-3 obtained by the method shown in Example 9 (188 kBq, 10.0 μL, ethanol solution) and the mouse plasma sample (200 μL) were mixed. The mixture was incubated at 37° C. for 1 hour, and acetonitrile (400 μL) was added thereto, followed by fractionation by centrifugation at 4000×g for 10 minutes. The supernatant was recovered, treated with Cosmonice Filter (S) (0.45 μm, 4 mm) (Nacalai Tesque, Inc.), and then analyzed by reverse phase HPLC. Analytical conditions for HPLC were the same as the conditions used in Example 9.
# [4] = Log P value measurement (1-octanol/phosphate buffer); assay type: physicochemical; details: 1-octanol / 0.1 mol/L phosphate buffer solution pH 7.4
# Method: Each of [^125I]BIP-1 to -4 (125 kBq) obtained by the method shown in Example 9 was added to a centrifuge tube containing 1-octanol (3.00 mL) and a 0.1 mol/L phosphate buffer solution (pH 7.4, 3.00 mL), vortexed for 2 minutes, and then centrifuged at 4,000×g for 10 minutes. 500 μL of a solution was collected from each layer, and the radioactivity thereof was then measured. A partition coefficient was determined from the 1-octanol/phosphate buffer solution ratio of radioactivity.
# [5] = mouse, 2 min after administration
# [6] = mouse, 10 min after administration
# [7] = mouse, 30 min after administration
# [8] = mouse, 60 min after administration
smiles,measurement,setting,value
"[125I]c1ccc2c(c1)nc1ccccn12 [[^125I]BIP-3, 7-[^125I]iodobenzo[4,5]imidazo[1,2-a]pyridine]",autoradiography images compared with [125I]BIP-1 and [125I]BIP-2,tau,images equivalent to [^125I]BIP-1 and [^125I]BIP-2
same,radioactivity accumulation to the temporal lobe (quantitative analysis),"tau; temporal lobe sites e-j, compared with frontal lobe",higher radioactivity accumulation
same,radioactivity accumulation on temporal lobe section compared with immunostaining of tau and Aβ,"tau; temporal lobe, AT8 and BC05 immunostaining",consistent with the accumulation of tau
same,radioactivity accumulation to the frontal lobe (quantitative analysis),"amyloid β protein (Aβ); frontal lobe sites a-d, only Aβ accumulates",low radioactivity accumulation
same,radioactivity in the brain,[1]; [5],4.74 % ID/g
same,radioactivity in the brain,[1]; [6],0.65 % ID/g
same,radioactivity in the brain,[1]; [7],0.12 % ID/g
same,radioactivity in the brain,[1]; [8],0.06 % ID/g
same,intracerebral kinetics,"[1]; mouse, i.v., 2-60 min",favorable intracerebral kinetics
same,Brain2 min/60 min,[1],79.0
same,radioactivity in Blood,[2]; 2 min,5.20 (0.44) % ID/g
same,radioactivity in Brain,[2]; 2 min,4.74 (0.57) % ID/g
same,radioactivity in Heart,[2]; 2 min,7.66 (1.21) % ID/g
same,radioactivity in Intestine,[2]; 2 min,5.41 (0.62) % ID/g
same,radioactivity in Kidneys,[2]; 2 min,23.7 % ID/g and 23.7 (2.44) % ID/g
same,radioactivity in Liver,[2]; 2 min,19.9 % ID/g and 19.9 (1.39) % ID/g
same,radioactivity in Lungs,[2]; 2 min,29.7 (4.63) % ID/g
same,radioactivity in Pancreas,[2]; 2 min,5.36 (0.91) % ID/g
same,radioactivity in Spleen,[2]; 2 min,4.76 (0.39) % ID/g
same,radioactivity in Stomach,[2]; 2 min,2.70 (0.56) % ID
same,radioactivity in Thyroid gland,[2]; 2 min,0.09 (0.03) % ID
same,radioactivity in Blood,[2]; 10 min,2.94 (0.41) % ID/g
same,radioactivity in Brain,[2]; 10 min,0.65 (0.07) % ID/g
same,radioactivity in Heart,[2]; 10 min,1.66 (0.75) % ID/g
same,radioactivity in Intestine,[2]; 10 min,11.6 (2.43) % ID/g
same,radioactivity in Kidneys,[2]; 10 min,12.2 (1.55) % ID/g
same,radioactivity in Liver,[2]; 10 min,14.4 (2.14) % ID/g
same,radioactivity in Lungs,[2]; 10 min,6.32 (1.16) % ID/g
same,radioactivity in Pancreas,[2]; 10 min,1.49 (0.47) % ID/g
same,radioactivity in Spleen,[2]; 10 min,1.34 (0.28) % ID/g
same,radioactivity in Stomach,[2]; 10 min,6.73 (1.64) % ID
same,radioactivity in Thyroid gland,[2]; 10 min,0.06 (0.02) % ID
same,radioactivity in Blood,[2]; 30 min,1.30 (0.16) % ID/g
same,radioactivity in Brain,[2]; 30 min,0.12 (0.01) % ID/g
same,radioactivity in Heart,[2]; 30 min,0.97 (0.26) % ID/g
same,radioactivity in Intestine,[2]; 30 min,21.4 (5.69) % ID/g
same,radioactivity in Kidneys,[2]; 30 min,10.3 (5.11) % ID/g
same,radioactivity in Liver,[2]; 30 min,6.29 (0.45) % ID/g
same,radioactivity in Lungs,[2]; 30 min,1.91 (0.29) % ID/g
same,radioactivity in Pancreas,[2]; 30 min,0.78 (0.47) % ID/g
same,radioactivity in Spleen,[2]; 30 min,0.58 (0.16) % ID/g
same,radioactivity in Stomach,[2]; 30 min,5.34 (1.26) % ID
same,radioactivity in Thyroid gland,[2]; 30 min,0.13 (0.03) % ID
same,radioactivity in Blood,[2]; 60 min,1.11 (0.53) % ID/g
same,radioactivity in Brain,[2]; 60 min,0.06 (0.01) % ID/g
same,radioactivity in Heart,[2]; 60 min,0.83 (0.24) % ID/g
same,radioactivity in Intestine,[2]; 60 min,29.4 % ID/g and 29.4 (7.49) % ID/g
same,radioactivity in Kidneys,[2]; 60 min,8.99 (4.47) % ID/g
same,radioactivity in Liver,[2]; 60 min,5.25 (0.95) % ID/g
same,radioactivity in Lungs,[2]; 60 min,1.45 (0.23) % ID/g
same,radioactivity in Pancreas,[2]; 60 min,0.75 (0.30) % ID/g
same,radioactivity in Spleen,[2]; 60 min,0.71 (0.11) % ID/g
same,radioactivity in Stomach,[2]; 60 min,4.42 (2.43) % ID
same,radioactivity in Thyroid gland,[2]; 60 min,0.22 % ID and 0.22 (0.03) % ID
same,deiodination in living body (from thyroid gland uptake),[2]; up to 60 min after administration,marked deiodination does not occur
same,stability in mouse plasma (reverse phase HPLC),[3],only the peak of the parent compound was detected
same,Log P,[4],3.22
"[125I]c1ccc2c(c1)nc1cc(-c3ccccc3)ccn12 [[^125I]BIP-1, 7-[^125I]iodo-3-phenylbenzo[4,5]imidazo[1,2-a]pyridine]",radioactivity accumulation in the brain gray matter of the temporal lobe / binding affinity for tau,tau; temporal lobe,have binding affinity for tau
same,nonspecific binding to the brain white matter,tau,low nonspecific binding
same,radioactivity accumulation in the frontal lobe section / binding affinity for the amyloid β protein (Aβ),amyloid β protein (Aβ),low
same,radioactivity in the brain,[1]; [5],3.51 % ID/g
same,radioactivity in the brain,[1]; [6],2.14 % ID/g
same,radioactivity in the brain,[1]; [7],0.65 % ID/g
same,radioactivity in the brain,[1]; [8],0.23 % ID/g
same,Brain2 min/60 min,[1],15.3
same,Log P,[4],2.64
"[125I]c1ccc(-c2ccn3c(c2)nc2ccccc23)cc1 [[^125I]BIP-2, 3-(4-[^125I]iodophenyl)benzo[4,5]imidazo[1,2-a]pyridine]",radioactivity accumulation in the brain gray matter of the temporal lobe / binding affinity for tau,tau; temporal lobe,have binding affinity for tau
same,nonspecific binding to the brain white matter,tau,low nonspecific binding
same,radioactivity accumulation in the frontal lobe section / binding affinity for the amyloid β protein (Aβ),amyloid β protein (Aβ),low
same,radioactivity in the brain,[1]; [5],2.73 % ID/g
same,radioactivity in the brain,[1]; [6],1.73 % ID/g
same,radioactivity in the brain,[1]; [7],0.57 % ID/g
same,radioactivity in the brain,[1]; [8],0.26 % ID/g
same,Brain2 min/60 min,[1],10.4
same,Log P,[4],2.61
"[125I]c1ccn2c(c1)nc1ccccc12 [[^125I]BIP-4, 3-[^125I]iodobenzo[4,5]imidazo[1,2-a]pyridine]",autoradiography images compared with [125I]BIP-1 and [125I]BIP-2,tau,images equivalent to [^125I]BIP-1 and [^125I]BIP-2
same,radioactivity in the brain,[1]; [5],2.37 % ID/g
same,radioactivity in the brain,[1]; [6],0.36 % ID/g
same,radioactivity in the brain,[1]; [7],0.09 % ID/g
same,radioactivity in the brain,[1]; [8],0.06 % ID/g
same,Brain2 min/60 min,[1],39.5
same,Log P,[4],2.35
